Target: T1, guanylate cyclase (Rattus norvegicus, UniProt P19686+P20595)
T1 construct: expressed in transfected cells; host or cells: recombinant reporter cell line
T1 sequence (P20595 1-619): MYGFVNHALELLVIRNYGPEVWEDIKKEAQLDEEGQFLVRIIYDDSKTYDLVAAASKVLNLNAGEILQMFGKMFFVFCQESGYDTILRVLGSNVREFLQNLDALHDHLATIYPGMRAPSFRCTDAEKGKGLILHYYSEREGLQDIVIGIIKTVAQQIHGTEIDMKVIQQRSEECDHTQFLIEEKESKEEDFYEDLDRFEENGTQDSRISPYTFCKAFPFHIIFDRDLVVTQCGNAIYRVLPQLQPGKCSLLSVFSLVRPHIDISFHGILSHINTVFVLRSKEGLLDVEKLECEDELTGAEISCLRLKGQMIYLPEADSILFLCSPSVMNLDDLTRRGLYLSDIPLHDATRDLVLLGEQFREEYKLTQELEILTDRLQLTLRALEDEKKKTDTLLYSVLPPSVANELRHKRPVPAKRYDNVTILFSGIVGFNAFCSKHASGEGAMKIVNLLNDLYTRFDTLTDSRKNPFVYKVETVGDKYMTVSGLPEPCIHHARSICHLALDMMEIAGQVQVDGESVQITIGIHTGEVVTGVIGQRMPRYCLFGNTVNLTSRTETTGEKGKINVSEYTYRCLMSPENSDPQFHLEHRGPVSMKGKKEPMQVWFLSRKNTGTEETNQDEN
T1 sequence (P19686 1-690): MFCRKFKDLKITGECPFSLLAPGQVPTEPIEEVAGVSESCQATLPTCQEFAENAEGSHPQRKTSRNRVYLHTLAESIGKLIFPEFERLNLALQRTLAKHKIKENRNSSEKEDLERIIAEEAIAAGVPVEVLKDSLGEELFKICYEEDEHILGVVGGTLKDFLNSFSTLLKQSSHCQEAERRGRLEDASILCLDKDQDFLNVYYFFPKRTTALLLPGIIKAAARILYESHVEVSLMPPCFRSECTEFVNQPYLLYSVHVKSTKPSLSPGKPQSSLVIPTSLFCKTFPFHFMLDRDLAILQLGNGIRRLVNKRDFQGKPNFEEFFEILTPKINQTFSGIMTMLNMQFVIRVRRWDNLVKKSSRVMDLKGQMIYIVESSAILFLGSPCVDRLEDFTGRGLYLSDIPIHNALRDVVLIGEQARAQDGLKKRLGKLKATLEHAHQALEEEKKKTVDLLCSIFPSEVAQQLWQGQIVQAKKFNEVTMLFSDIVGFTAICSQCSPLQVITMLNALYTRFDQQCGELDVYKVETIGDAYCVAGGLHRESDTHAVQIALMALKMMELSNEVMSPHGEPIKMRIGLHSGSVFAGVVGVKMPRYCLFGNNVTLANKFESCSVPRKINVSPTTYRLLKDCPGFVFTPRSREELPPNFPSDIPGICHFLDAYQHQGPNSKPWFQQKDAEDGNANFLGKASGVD
Test: Effect on a recombinant guanylate cyclase reporter cell line
Assay type: cell-based
Method: The cellular activity of the compounds according to the invention is determined using a recombinant guanylate cyclase reporter cell line, as described in F. Wunder et al., Anal. Biochem. 339, 104-112 (2005).

- MEC (minimum effective concentration): 0.3 µM
Compound: CC1(C(F)(F)F)C(=O)Nc2nc(-c3nn(Cc4ccccc4F)c4ncc(F)cc34)nc(NCCC(F)(F)F)c21 (single isomer, unassigned) [Example 1-2, 2-[5-Fluoro-1-(2-fluorobenzyl)-1H-pyrazolo[3,4-b]pyridin-3-yl]-5-methyl-5-(trifluoromethyl)-4-[(3,3,3-trifluoropropyl)amino]-5,7-dihydro-6H-pyrrolo[2,3-d]pyrimidin-6-one]

From patent publication US20160002267A1, “BENZYL-SUBSTITUTED PYRAZOLOPYRIDINES AND USE THEREOF” (BAYER PHARMA AKTIENGESELLSCHAFT, priority 2013, published 2016)
